Experimental data published in PubChem BioAssay AID1259407 (Chemical Carcinogenesis Research Information System (CCRIS), 2018).
Calls of active or inactive are those of the source. The rule behind the calls is not given here.

System: CCRIS mutagenicity, Ames/micronucleus/aberration tests
Experiment: CCRIS mutagenicity studies
[1] = Test System: AMES SALMONELLA TYPHIMURIUM, Strain/Indicator: TA98, Metabolic Activation: HAMSTER, LIVER, S-9, AROCLOR 1254 (10%), Method: PREINCUBATION
[2] = Test System: AMES SALMONELLA TYPHIMURIUM, Strain/Indicator: TA98, Metabolic Activation: NONE, Method: PREINCUBATION
[3] = Test System: AMES SALMONELLA TYPHIMURIUM, Strain/Indicator: TA98, Metabolic Activation: RAT, LIVER, S-9, AROCLOR 1254 (10%), Method: PREINCUBATION
[4] = Test System: AMES SALMONELLA TYPHIMURIUM, Strain/Indicator: TA100, Metabolic Activation: HAMSTER, LIVER, S-9, AROCLOR 1254 (10%), Method: PREINCUBATION
[5] = Test System: AMES SALMONELLA TYPHIMURIUM, Strain/Indicator: TA100, Metabolic Activation: NONE, Method: PREINCUBATION
[6] = Test System: AMES SALMONELLA TYPHIMURIUM, Strain/Indicator: TA100, Metabolic Activation: RAT, LIVER, S-9, AROCLOR 1254 (10%), Method: PREINCUBATION
[7] = Test System: AMES SALMONELLA TYPHIMURIUM, Strain/Indicator: TA1535, Metabolic Activation: HAMSTER, LIVER, S-9, AROCLOR 1254 (10%), Method: PREINCUBATION
[8] = Test System: AMES SALMONELLA TYPHIMURIUM, Strain/Indicator: TA1535, Metabolic Activation: NONE, Method: PREINCUBATION
[9] = Test System: AMES SALMONELLA TYPHIMURIUM, Strain/Indicator: TA1535, Metabolic Activation: RAT, LIVER, S-9, AROCLOR 1254 (10%), Method: PREINCUBATION
[10] = Test System: AMES SALMONELLA TYPHIMURIUM, Strain/Indicator: TA1537, Metabolic Activation: HAMSTER, LIVER, S-9, AROCLOR 1254 (10%), Method: PREINCUBATION
[11] = Test System: AMES SALMONELLA TYPHIMURIUM, Strain/Indicator: TA1537, Metabolic Activation: NONE, Method: PREINCUBATION
[12] = Test System: AMES SALMONELLA TYPHIMURIUM, Strain/Indicator: TA1537, Metabolic Activation: RAT, LIVER, S-9, AROCLOR 1254 (10%), Method: PREINCUBATION
[13] = Test System: MOUSE LYMPHOMA, Strain/Indicator: L5178Y (TK+/TK-), Metabolic Activation: NONE, Method: SUSPENSION/PLATE
[14] = Test System: AMES SALMONELLA TYPHIMURIUM, Strain/Indicator: TA100, Metabolic Activation: NONE, Method: STANDARD PLATE

**Q.** Which results are given for O=C(O)CC(Cl)C(=O)O (stereo not drawn)?
**A.** mutagenic call (Test System: AMES SALMONELLA TYPHIMURIUM, Strain/Indicator: TA98, Metabolic Activation: NONE): inactive; negative; mutagenic call (Test System: AMES SALMONELLA TYPHIMURIUM, Strain/Indicator: TA98, Metabolic Activation: RAT, LIVER, S-9, AROCLOR 1254): inactive; negative; mutagenic call (Test System: AMES SALMONELLA TYPHIMURIUM, Strain/Indicator: TA100, Metabolic Activation: NONE): inactive; negative; mutagenic call (Test System: AMES SALMONELLA TYPHIMURIUM, Strain/Indicator: TA100, Metabolic Activation: RAT, LIVER, S-9, AROCLOR 1254): inactive; negative; mutagenic call (Test System: AMES SALMONELLA TYPHIMURIUM, Strain/Indicator: TA102, Metabolic Activation: NONE): inactive; negative; mutagenic call (Test System: AMES SALMONELLA TYPHIMURIUM, Strain/Indicator: TA102, Metabolic Activation: RAT, LIVER, S-9, AROCLOR 1254): inactive; negative; mutagenic call (Test System: AMES SALMONELLA TYPHIMURIUM, Strain/Indicator: TA104, Metabolic Activation: NONE): inactive; negative; mutagenic call (Test System: AMES SALMONELLA TYPHIMURIUM, Strain/Indicator: TA104, Metabolic Activation: RAT, LIVER, S-9, AROCLOR 1254): inactive; negative

**Q.** With Nc1ccc(O)c(N)c1 as the molecule, how does the mutagenic call (End Point: IN VITRO CHROMOSOMAL ABERRATIONS, Test System: CHINESE HAMSTER OVARY CELLS, Metabolic Activation: NONE) read?
**A.** inactive; negative

**Q.** And the mutagenic call (End Point: IN VITRO CHROMOSOMAL ABERRATIONS, Test System: CHINESE HAMSTER OVARY CELLS, Metabolic Activation: RAT, LIVER, S-9, AROCLOR 1254)?
**A.** inactive; negative

**Q.** And the mutagenic call [1]?
**A.** active; positive

**Q.** What about the mutagenic call [2] of the same molecule?
**A.** inactive; negative

**Q.** What about the mutagenic call [3] of the same molecule?
**A.** active; positive

**Q.** What about the mutagenic call [4] of the same molecule?
**A.** inactive; negative

**Q.** And the mutagenic call [5]?
**A.** inactive; negative

**Q.** And the mutagenic call [6]?
**A.** inactive; negative

**Q.** And the mutagenic call [7]?
**A.** inactive; negative

**Q.** And the mutagenic call [8]?
**A.** inactive; negative

**Q.** And the mutagenic call [9]?
**A.** inactive; negative

**Q.** And the mutagenic call [10]?
**A.** inactive; negative

**Q.** What about the mutagenic call [11] of the same molecule?
**A.** inactive; negative

**Q.** And the mutagenic call [12]?
**A.** inactive; negative

**Q.** What about the mutagenic call [13] of the same molecule?
**A.** active; positive

**Q.** CC(/C=C(/C#N)c1ccc(F)cc1)C(c1ccccc1)C(C#N)c1ccc(F)cc1 (stereo not drawn) was tested. Which mutagenic call [14] did it give?
**A.** inactive; negative

**Q.** Which mutagenic call [2] does the source give for Cc1c(N=O)cccc1[N+](=O)[O-] here?
**A.** inactive; negative

**Q.** And the mutagenic call (Test System: AMES SALMONELLA TYPHIMURIUM, Strain/Indicator: TA98, Metabolic Activation: RAT, LIVER, S-9, PHENOBARBITAL AND 5,6-BENZOFLAVONE, Method: PREINCUBATION)?
**A.** inactive; negative

**Q.** And the mutagenic call [5]?
**A.** inactive; negative

**Q.** What about the mutagenic call (Test System: AMES SALMONELLA TYPHIMURIUM, Strain/Indicator: TA100, Metabolic Activation: RAT, LIVER, S-9, PHENOBARBITAL AND 5,6-BENZOFLAVONE, Method: PREINCUBATION) of the same molecule?
**A.** inactive; negative

**Q.** How did the mutagenic call [14] turn out when CC(=O)Oc1ccc(CO)cc1 was run?
**A.** inactive; negative

**Q.** Nc1[nH]c(=O)nc2c1ncn2[C@@H]1O[C@H](CO)[C@@H](O)[C@H]1O was tested. Which mutagenic call [5] did it give?
**A.** inactive; negative

**Q.** How did the mutagenic call [14] turn out when c1cc(OCC2CO2)c2sncc2c1 (stereo not drawn) was run?
**A.** active; positive

**Q.** Which results are given for CN=C([S-])N/N=C/C(C)=N/NC([S-])=NC.[Cu+2]?
**A.** mutagenic call (Test System: AMES SALMONELLA TYPHIMURIUM, Strain/Indicator: TA98, Metabolic Activation: NONE, Method: STANDARD PLATE): inactive; negative; mutagenic call (Test System: AMES SALMONELLA TYPHIMURIUM, Strain/Indicator: TA98, Metabolic Activation: RAT, LIVER, S-9, AROCLOR, Method: STANDARD PLATE): inactive; negative; mutagenic call [14]: inactive; negative; mutagenic call (Test System: AMES SALMONELLA TYPHIMURIUM, Strain/Indicator: TA100, Metabolic Activation: RAT, LIVER, S-9, AROCLOR, Method: STANDARD PLATE): inactive; negative

**Q.** Which results are given for O=Cc1ccc(Cl)cc1?
**A.** mutagenic call [2]: inactive; negative; mutagenic call (Test System: AMES SALMONELLA TYPHIMURIUM, Strain/Indicator: TA98, Metabolic Activation: RAT LIVER S-9, PCB, Method: PREINCUBATION): inactive; negative; mutagenic call [5]: inactive; negative; mutagenic call (Test System: AMES SALMONELLA TYPHIMURIUM, Strain/Indicator: TA100, Metabolic Activation: RAT LIVER S-9, AROCLOR 1254, Method: PREINCUBATION): inactive; negative; mutagenic call (Test System: AMES SALMONELLA TYPHIMURIUM, Strain/Indicator: TA100, Metabolic Activation: RAT LIVER S-9, PCB, Method: PREINCUBATION): inactive; negative; mutagenic call (Test System: AMES SALMONELLA TYPHIMURIUM, Strain/Indicator: TA102, Metabolic Activation: NONE, Method: PREINCUBATION): inactive; negative; mutagenic call (Test System: AMES SALMONELLA TYPHIMURIUM, Strain/Indicator: TA102, Metabolic Activation: RAT LIVER S-9, AROCLOR 1254, Method: PREINCUBATION): inactive; negative; mutagenic call (Test System: AMES SALMONELLA TYPHIMURIUM, Strain/Indicator: TA104, Metabolic Activation: NONE, Method: PREINCUBATION): inactive; negative; mutagenic call (Test System: AMES SALMONELLA TYPHIMURIUM, Strain/Indicator: TA104, Metabolic Activation: RAT LIVER S-9, AROCLOR 1254, Method: PREINCUBATION): inactive; negative; mutagenic call (Test System: AMES SALMONELLA TYPHIMURIUM, Strain/Indicator: TA104, Metabolic Activation: RAT LIVER S-9, PCB, Method: PREINCUBATION): inactive; negative; mutagenic call (Test System: E. COLI, Strain/Indicator: WP2 UVRA, Metabolic Activation: NONE, Method: PREINCUBATION): inactive; negative; mutagenic call (Test System: E. COLI, Strain/Indicator: WP2 UVRA, Metabolic Activation: RAT LIVER S-9, PCB, Method: PREINCUBATION): inactive; negative; mutagenic call [13]: inactive; positive. reevaluation of results: negative; mutagenic call (Test System: Mouse lymphoma, Strain/Indicator: L5178Y (tk+/tk-), Metabolic Activation: Rat, Liver, S-9, Aroclor 1254, Method: Suspension/plate): inactive; negative

**Q.** CC(=O)N(C)c1ccc(N=Nc2ccc(N(C)C)cc2)cc1 was tested. Which mutagenic call (Test System: AMES SALMONELLA TYPHIMURIUM, Strain/Indicator: TA98, Metabolic Activation: RAT, LIVER, S-9, POLYCHLORINATED BIPHENYLS, Method: PREINCUBATION) did it give?
**A.** active; positive

**Q.** And the mutagenic call (Test System: AMES SALMONELLA TYPHIMURIUM, Strain/Indicator: TA100, Metabolic Activation: RAT, LIVER, S-9, POLYCHLORINATED BIPHENYLS, Method: PREINCUBATION)?
**A.** active; positive

**Q.** With CCN(CC)CC as the molecule, how does the mutagenic call [1] read?
**A.** inactive; negative

**Q.** And the mutagenic call [2]?
**A.** inactive; negative

**Q.** What about the mutagenic call [3] of the same molecule?
**A.** inactive; negative

**Q.** What about the mutagenic call [4] of the same molecule?
**A.** inactive; negative

**Q.** And the mutagenic call [5]?
**A.** inactive; negative

**Q.** And the mutagenic call [6]?
**A.** inactive; negative

**Q.** What about the mutagenic call [7] of the same molecule?
**A.** inactive; negative

**Q.** What about the mutagenic call [8] of the same molecule?
**A.** inactive; negative

**Q.** What about the mutagenic call [9] of the same molecule?
**A.** inactive; negative

**Q.** What about the mutagenic call [10] of the same molecule?
**A.** inactive; negative

**Q.** What about the mutagenic call [11] of the same molecule?
**A.** inactive; negative

**Q.** What about the mutagenic call [12] of the same molecule?
**A.** inactive; negative
